Source: patent US20250215039A1, “NUCLEOSIDES FOR TREATING CANCER” (PRIMEFOUR THERAPEUTICS, INC., priority 2022, published 2025)
Where two headings read alike, the source gives them in different places.

How the values were obtained:
cancer cell lines = test: Cancer cell proliferation activity (CellTiterGlo, 72 h); format: cell-based; details: 72 h, 72 h, read-out: IC50 cell proliferation
Outline: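 Cells seeded overnight at 37 °C, then dosed with compound at 0.1% final DMSO and incubated 72 h at 37 °C (5% or 10% CO2 by medium).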

[1] = target: human cytidine deaminase (CDA) (Homo sapiens, UniProt P32320); test: Metabolism by human cytidine deaminase (CDA), substrate absorbance at 290 nm; details: rate of substrate conversion at 200 μM; could not be fitted
human cytidine deaminase (CDA), sequence (P32320 whole entry): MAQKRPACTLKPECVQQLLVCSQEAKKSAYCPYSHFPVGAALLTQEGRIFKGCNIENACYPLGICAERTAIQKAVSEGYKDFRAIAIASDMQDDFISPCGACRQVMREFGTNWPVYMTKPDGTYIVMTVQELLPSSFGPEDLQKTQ
Procedure: Transfer 7.2 μl of each of the substrate DMSO stock in step 2 into a 500 μl 96-Well V-bottom Microplate, clear SBS footprint, cat #P-96-450V-C
Add 352.8 μl assay buffer to the wells
For deaminated product compounds mix 4 μl product with 196 μl assay buffer
This was incubated at 37° C. for 1 h. 200 μl of this mixture was transferred into the assay plate to serve as the product control.
Product+buffer: mix 80 ul of the 2.5× intermediate product stocks (from step 3) with 120 ul assay buffer into product control (no enzyme) wells
Incubate the plate alongside the 20 nM CDA enzyme intermediate stock at 37° C. to temperature equilibrate reagents
Add 120 μl of the 20 nM enzyme mix into the Substrate+CDA wells and start reading at 290 nm every 30 s for about 60 min
50 and 200 uM substrate and product
In 100 mM Tris, pH 7.5, 100 mM KCl, 0.8% carryover DMSO
5 min incubation at 37° C.
Absorbance at 290 nm every 30 s at 37° C. for 1 h using FlexStation 3
Convert A290 to concentration of substrate remaining at time t after enzyme addition:
[formula] • where: • St=absorbance reading of: substrate+CDA wells at time t • So=Average absorbance reading of: substrate+buffer wells • Po=Average absorbance reading of: product+buffer wells • [S]t=initial substrate concentration • Use GraphPad to plot [substrate] against time to calculate initial velocity or slope (μMs^−1) i.e. the linear range of each curve • Express rate in s^−1 by dividing initial velocity by the total enzyme concentration.
Plot rate against [substrate] and fit data to standard Michaelis Menten equation to obtain kcat and KM parameters.

`Nc1ccn([C@H]2C[C@H](O)[C@](CO)(CF)O2)c(=O)n1` [Cpd. No. 198, 4-amino-1-((2R,4S,5R)-5-(fluoromethyl)-4-hydroxy-5-(hydroxymethyl)tetrahydrofuran-2-yl)pyrimidin-2(1H)-one] showed an IC50 (cancer cell lines; 5637 (bladder)) of 450 nM, an IC50 (cancer cell lines; CLS439 (bladder)) of 2270 nM and an IC50 (cancer cell lines; HS729 (muscle)) of 580 nM. For the same compound, the IC50 (cancer cell lines; J82 (bladder)) was 760 nM, the IC50 (cancer cell lines; JAR (placenta)) was over 50000 nM and the IC50 (cancer cell lines; MT3 (breast)) was 80 nM. The IC50 (cancer cell lines; PANCI (pancreas)) was 620 nM, the IC50 (cancer cell lines; PC3 (prostate)) was 180 nM and the IC50 (cancer cell lines; RD (muscle)) was 1030 nM. It also gave an IC50 (cancer cell lines; T24 (bladder)) of 290 nM, an IC50 (cancer cell lines; Homo sapiens, A204, 72 h, A204 (muscle)) of 20 nM and an IC50 (cancer cell lines; Homo sapiens, A549, 72 h, A549 (lung)) of 440 nM. The IC50 (cancer cell lines; Homo sapiens, A2780, 72 h, A2780 (ovary)) was 720 nM, the IC50 (cancer cell lines; Homo sapiens, A-375, 72 h, A375 (skin)) was 710 nM and the IC50 (cancer cell lines; Homo sapiens, A-431, 72 h, A431 (skin)) was 470 nM. It also gave an IC50 (cancer cell lines; Homo sapiens, ACHN, ACHN (kidney)) of 390 nM, an IC50 (cancer cell lines; Homo sapiens, ASPC1, 72 h, ASPC1 (pancreas)) of 580 nM and an IC50 (cancer cell lines; Homo sapiens, BT-20, 72 h, BT20 (breast)) of 580 nM. It also gave an IC50 (cancer cell lines; Homo sapiens, BXPC-3, 72 h, BXPC3 (pancreas)) of 540 nM, an IC50 (cancer cell lines; Homo sapiens, C-33-A, C33A (endometrial)) of 240 nM and an IC50 (cancer cell lines; Homo sapiens, CAKI-1, 72 h, CAKI1 (kidney)) of 110 nM. For the same compound, the IC50 (cancer cell lines; Homo sapiens, COLO 205, 72 h, COLO205 (colon)) was 210 nM, the IC50 (cancer cell lines; Homo sapiens, Caco-2, 72 h, CACO2 (colon)) was over 50000 nM and the IC50 (cancer cell lines; Homo sapiens, Calu-6, 72 h, CALU6 (lung)) was 720 nM. It also gave an IC50 (cancer cell lines; Homo sapiens, DU-145, 72 h, DU145 (prostate)) of 310 nM, an IC50 (cancer cell lines; Homo sapiens, EFO-21, 72 h, EFO21 (ovary)) of 790 nM and an IC50 (cancer cell lines; Homo sapiens, Granta-519, 72 h, GRANTA-519 (hematological)) of 70 nM. For the same compound, the IC50 (cancer cell lines; Homo sapiens, HCT-15, 72 h, HCT15 (colon)) was 460 nM, the IC50 (cancer cell lines; Homo sapiens, HCT-116, 72 h, HCT116 (colon)) was 470 nM and the IC50 (cancer cell lines; Homo sapiens, HEK293, 72 h, HEK293 (kidney)) was over 50000 nM. The IC50 (cancer cell lines; Homo sapiens, HT-1080, 72 h, HT1080 (connective tissue)) was 380 nM, the IC50 (cancer cell lines; Homo sapiens, HeLa, HELA (endometrial)) was 1000 nM and the IC50 (cancer cell lines; Homo sapiens, HepG2, 72 h, HEPG2 (liver)) was 1000 nM. The IC50 (cancer cell lines; Homo sapiens, Hs-578T, HS578T (breast)) was 970 nM, the IC50 (cancer cell lines; Homo sapiens, IGROV-1, 72 h, IGROV1 (ovary)) was 510 nM and the IC50 (cancer cell lines; Homo sapiens, JIMT-1, 72 h, JIMT1 (breast)) was 190 nM. For the same compound, the IC50 (cancer cell lines; Homo sapiens, Kasumi 1, 72 h, KASUMI-1 (hematological)) was 270 nM, the IC50 (cancer cell lines; Homo sapiens, L-363, 72 h, L-363 (hematological)) was over 50000 nM and the IC50 (cancer cell lines; Homo sapiens, LoVo, LOVO (colon)) was 290 nM. It also gave an IC50 (cancer cell lines; Homo sapiens, MDA-MB-231, 72 h, MDAMB231 (breast)) of 100 nM, an IC50 (cancer cell lines; Homo sapiens, MDA-MB-435, 72 h, MDAMB435 (skin)) of 1300 nM and an IC50 (cancer cell lines; Homo sapiens, MDA-MB-436, 72 h, MDAMB436 (breast)) of 950 nM. For the same compound, the IC50 (cancer cell lines; Homo sapiens, MG-63, 72 h, MG63 (bone)) was 480 nM, the IC50 (cancer cell lines; Homo sapiens, MINO, MINO (hematological)) was 60 nM and the IC50 (cancer cell lines; Homo sapiens, MV4-11, 72 h, MV4-11 (hematological)) was 840 nM. It also gave an IC50 (cancer cell lines; Homo sapiens, NCI-H23, 72 h, NCI-H23 (lung)) of 720 nM, an IC50 (cancer cell lines; Homo sapiens, NCI-H292, 72 h, NCIH292 (lung)) of 920 nM and an IC50 (cancer cell lines; Homo sapiens, NCI-H460, 72 h, NCIH460 (lung)) of 770 nM. The IC50 (cancer cell lines; Homo sapiens, OVCAR-3, 72 h, OVCAR3 (ovary)) was 640 nM, the IC50 (cancer cell lines; Homo sapiens, PLC-PRF-5, 72 h, PLCPRF5 (liver)) was over 50000 nM and the IC50 (cancer cell lines; Homo sapiens, Panc1005, 72 h, PANC1005 (pancreas)) was over 50000 nM. For the same compound, the IC50 (cancer cell lines; Homo sapiens, Ramos, RAMOS (hematological)) was 240 nM, the IC50 (cancer cell lines; Homo sapiens, SAOS-2, 72 h, SAOS2 (bone)) was 110 nM and the IC50 (cancer cell lines; Homo sapiens, SF-268, 72 h, SF268 (brain)) was 260 nM. The IC50 (cancer cell lines; Homo sapiens, SK-BR-3, 72 h, SKBR3 (breast)) was 260 nM, the IC50 (cancer cell lines; Homo sapiens, SK-HEP1, 72 h, SKHEP1 (liver)) was 320 nM and the IC50 (cancer cell lines; Homo sapiens, SK-LMS-1, 72 h, SKLMS1 (uterus)) was 860 nM. It also gave an IC50 (cancer cell lines; Homo sapiens, SK-N-SH, SKNSH (brain)) of over 50000 nM, an IC50 (cancer cell lines; Homo sapiens, SNB-75, 72 h, SNB75 (brain)) of 550 nM and an IC50 (cancer cell lines; Homo sapiens, SU-DHL10, 72 h, SU-DHL-10 (hematological)) of 560 nM. It also gave an IC50 (cancer cell lines; Homo sapiens, SU-DHL-6, 72 h, SU-DHL-6 (hematological)) of 310 nM, an IC50 (cancer cell lines; Homo sapiens, THP-1, 72 h, THP-1 (hematological)) of 650 nM and an IC50 (cancer cell lines; Homo sapiens, U-87 MG, U87MG (brain)) of 400 nM. The IC50 (cancer cell lines; Homo sapiens, UO-31, 72 h, UO31 (kidney)) was 550 nM, the IC50 (cancer cell lines; Homo sapiens, WSU-NHL, WSU-NHL (hematological)) was 150 nM and the IC50 (cancer cell lines; NCI-H358M, NCIH358M (lung)) was 120 nM. The IC50 (cancer cell lines; PBMC, PBMC (hematological)) was 710 nM, the IC50 (cancer cell lines; RD-ES, RDES (bone)) was 1900 nM and the “substrate conversion by CDA (Inactive)” value [1] was “Inactive”.
